Test results as given in patent publication US9150543B2, “Substituted indolyl alkyl amino derivatives as inhibitors of histone deacetylase” (Janssen Pharmaceutica N. V., priority 2004, dated 2015).
Values after ≈ are worked out from the molar mass of the structure shown.

Columns and labels:
[1] = molecular target: histone deacetylase (HeLa nuclear extracts); test: In vitro assay for inhibition of histone deacetylase with fluorescent-labelled substrate (C.1.b); assay type: biochemical; conditions: Fluor de Lys substrate
Procedure: The HDAC Fluorescent Activity Assay/Drug Discovery Kit of Biomol (cat.No: AK-500-0001) was used. The HDAC Fluorescent Activity Assay is based on the Fluor de Lys (Fluorogenic Histone deAcetylase Lysyl) substrate and developer combination. The Fluor de Lys substrate, comprises an acetylated lysine side chain. Deacetylation of the substrate sensitizes the substrate so that, in the second step, treatment with the Fluor de Lys developer produces a fluorophore.
After 30 min, 1 volume of the developer was added. […] For each experiment, controls (containing HeLa nuclear extract and buffer), a blank incubation (containing buffer but no HeLa nuclear extract) and samples (containing compound dissolved in DMSO and further diluted in buffer and HeLa nuclear extract) were run in parallel. In first instance, compounds were tested at a concentration of 10^−5M. […] All sample were tested 4 times. In each test the blank value was subtracted from both the control and the sample values. The control sample represented 100% of substrate deactylation. For each sample the fluorescence was expressed as a percentage of the mean value of the controls. […] Herein the effects of test compounds are expressed as pIC50 (the negative log value of the IC50-value) (see Table F-3).

[2] = system: A2780 ovarian carcinoma cells; test: Antiproliferative activity on A2780 cells, MTT (C.2); assay type: cell-based; conditions: Homo sapiens, 96 h, four days of incubation, read-out: Cellular activity pIC50 C.2 (converted)
Procedure: All compounds tested were dissolved in DMSO and further dilutions were made in culture medium. Final DMSO concentrations never exceeded 0.1% (v/v) in cell proliferation assays. Controls contained A2780 cells and DMSO without compound and blanks contained DMSO but no cells. MTT was dissolved at 5 mg/ml in PBS. A glycine buffer comprised of 0.1 M glycine and 0.1 M NaCl buffered to pH 10.5 with NaOH (1N) was prepared (all reagents were from Merck).
The human A2780 ovarian carcinoma cells (a kind gift from Dr. T. C. Hamilton [Fox Chase Cancer Centre, Pennsylvania, USA]) were cultured in RPMI 1640 medium supplemented with 2 mM L-glutamine, 50 μg/ml gentamicin and 10% fetal calf serum. Cells were routinely kept as monolayer cultures at 37° C. in a humidified 5% CO2 atmosphere. Cells were passaged once a week using a trypsin/EDTA solution at a split ratio of 1:40. All media and supplements were obtained from Life Technologies. Cells were free of mycoplasma contamination as determined using the Gen-Probe Mycoplasma Tissue Culture kit (supplier: BioMerieux).
Cells were seeded in NUNC™ 96-well culture plates (Supplier: Life Technologies) and allowed to adhere to the plastic overnight. Densities used for plating were 1500 cells per well in a total volume of 200 μl medium. After cell adhesion to the plates, medium was changed and drugs and/or solvents were added to a final volume of 200 μl. Following four days of incubation, medium was replaced by 200 μl fresh medium and cell density and viability was assessed using an MTT-based assay. To each well, 25 μl MTT solution was added and the cells were further incubated for 2 hours at 37° C. The medium was then carefully aspirated and the blue MTT-formazan product was solubilized by addition of 25 μl glycine buffer followed by 100 μl of DMSO. […] Within an experiment, the results for each experimental condition are the mean of 3 replicate wells. For initial screening purposes, compounds were tested at a single fixed concentration of 10^−6 M. For active compounds, the experiments were repeated to establish full concentration-response curves. For each experiment, controls (containing no drug) and a blank incubation (containing no cells or drugs) were run in parallel. The blank value was subtracted from all control and sample values. For each sample, the mean value for cell growth (in absorbance units) was expressed as a percentage of the mean value for cell growth of the control. […] Herein the effects of test compounds are expressed as pIC50 (the negative log value of the IC50-value)(see Table F-3).

[3] = molecular target: histone deacetylase (HeLa nuclear extracts); test: In vitro assay for inhibition of histone deacetylase with [3H]-labelled substrate (C.1.a); assay type: biochemical; conditions: [3H]-acetylated histone H4 peptide substrate
Procedure: As a substrate for measuring HDAC activity a synthetic peptide, i.e. the amino acids 14-21 of histone H4, was used. The substrate is biotinylated at the NH2-terminal part with a 6-aminohexanoic acid spacer, and is protected at the COOH-terminal part by an amide group and specifically [^3H]acetylated at lysine 16. The substrate, biotin-(6-aminohexanoic)Gly-Ala-([^3H]-acetyl-Lys-Arg-His-Arg-Lys-Val-NH2), was added in a buffer containing 25 mM Hepes, 1 M sucrose, 0.1 mg/ml BSA and 0.01% Triton X-100 at pH 7.4. After 30 min the deacetylation reaction was terminated by the addition of HCl and acetic acid. (final concentration 0.035 mM and 3.8 mM respectively). After stopping the reaction, the free ^3H-acetate was extracted with ethylacetate. After mixing and centrifugation, the radioactivity in an aliquot of the upper (organic) phase was counted in a β-counter.
For each experiment, controls (containing HeLa nuclear extract and DMSO without compound), a blank incubation (containing DMSO but no HeLa nuclear extract or compound) and samples (containing compound dissolved in DMSO and HeLa nuclear extract) were run in parallel. In first instance, compounds were tested at a concentration of 10^−5M. […] In each test the blank value was subtracted from both the control and the sample values. The control sample represented 100% of substrate deactylation. For each sample the radioactivity was expressed as a percentage of the mean value of the controls. […] Herein the effects of test compounds are expressed as pIC50 (the negative log value of the IC50-value) (see Table F-3).

[4] = Solubility/stability at different pH's, chemiluminescent nitrogen detector (C.3.b); assay type: physicochemical; conditions: aqueous buffer; pH = 2.3
Source text: In a second method the solubility of a compound at different pH's can be measured with the use of a Chemiluminescent Nitrogen Detector (see example C.3.b).
The solubility of a compound, at different pH's, can also be measured with the use of a chemiluminescent nitrogen detector. (see Table F-3).

O=C(NO)c1cnc(N2CCC(CNCc3c[nH]c4ccc(Cl)cc34)CC2)nc1 [Compound 2]
Enzymatic activity pIC50 C.1.b [1]: 8.4
IC50 [2]: 31.6 nM
melting point: 205 °C

CN(CCc1c[nH]c2ccccc12)CC1CCN(c2ncc(C(=O)NO)cn2)CC1 [Compound 3]
Enzymatic activity pIC50 C.1.a. [3]: 8.5
IC50 [2]: 200 nM
melting point: 121 °C

Cn1cc(CNC2CCN(c3ncc(C(=O)NO)cn3)CC2)c2ccccc21 [Compound 6]
Enzymatic activity pIC50 C.1.a. [3]: 8.2
IC50 [2]: 501 nM

O=C(NO)c1cnc(N2CCC(NCc3c[nH]c4ccccc34)CC2)nc1 [Compound 7]
Enzymatic activity pIC50 C.1.a. [3]: 8.5
IC50 [2]: 794 nM

Cn1cc(CCNCC2CCN(c3ncc(C(=O)NO)cn3)CC2)c2ccccc21 [Compound 19]
Enzymatic activity pIC50 C.1.b [1]: 8.0
IC50 [2]: 79.4 nM
melting point: 174 °C

CCN(Cc1cn(CC)c2ccccc12)CC1CCN(c2ncc(C(=O)NO)cn2)CC1 [Compound 20]
Enzymatic activity pIC50 C.1.b [1]: 9.5
IC50 [2]: 7.94 nM
solubility [4]: 2700 µg/mL (≈ 6.18 mM)
melting point: 90 °C

CN(CCc1cn(C)c2ccccc12)CC1CCN(c2ncc(C(=O)NO)cn2)CC1 [Compound 21]
Enzymatic activity pIC50 C.1.b [1]: 8.5
IC50 [2]: 25.1 nM
solubility [4]: 1900 µg/mL (≈ 4.5 mM)
melting point: 83 °C

Cn1cc(CCN(CC2CCN(c3ncc(C(=O)NO)cn3)CC2)S(C)(=O)=O)c2cc(Cl)ccc21 [Compound 22]
Enzymatic activity pIC50 C.1.b [1]: 9.1
IC50 [2]: 63.1 nM
melting point: 183 °C

CCn1c(C)c(CCNC2CCN(c3ncc(C(=O)NO)cn3)CC2)c2ccccc21 [Compound 23]
Enzymatic activity pIC50 C.1.b [1]: 8.4
IC50 [2]: 31.6 nM
melting point: 182 °C

COc1ccc2c(CCNCC3CCN(c4ncc(C(=O)NO)cn4)CC3)cn(C)c2c1 [Compound 24]
Enzymatic activity pIC50 C.1.b [1]: 7.6
IC50 [2]: 316 nM
solubility [4]: 1600 µg/mL (≈ 3.65 mM)
melting point: 160 °C

CCCn1cc(CCN(CC)CC2CCN(c3ncc(C(=O)NO)cn3)CC2)c2ccc(OC)cc21 [Compound 25]
Enzymatic activity pIC50 C.1.b [1]: 7.6
IC50 [2]: 100 nM
melting point: 80 °C

Cn1cc(CCNCC2CCN(c3ncc(C(=O)NO)cn3)CC2)c2cc(Cl)ccc21 [Compound 26]
Enzymatic activity pIC50 C.1.b [1]: >9.0
IC50 [2]: 31.6 nM
melting point: 188 °C

CCCn1cc(CNCC2CCN(c3ncc(C(=O)NO)cn3)CC2)c2cc(Cl)ccc21 [Compound 27]
Enzymatic activity pIC50 C.1.b [1]: >9.0
IC50 [2]: 10 nM
melting point: 171 °C

Cc1c(CCNCC2CCN(c3ncc(C(=O)NO)cn3)CC2)c2ccccc2n1C [Compound 28]
Enzymatic activity pIC50 C.1.b [1]: 8.1
IC50 [2]: 79.4 nM
melting point: 80 °C

Cn1cc(CNCC2CCN(c3ncc(C(=O)NO)cn3)CC2)c2cc(Cl)ccc21 [Compound 32]
Enzymatic activity pIC50 C.1.b [1]: 8.0
IC50 [2]: 3.98 nM
solubility [4]: 1500 µg/mL (≈ 3.5 mM)

COc1ccc2c(c1)c(CNCC1CCN(c3ncc(C(=O)NO)cn3)CC1)cn2C [Compound 33]
Enzymatic activity pIC50 C.1.b [1]: 10.0
IC50 [2]: 31.6 nM
solubility [4]: 1600 µg/mL (≈ 3.77 mM)

Cc1ccc2c(c1)c(CNCC1CCN(c3ncc(C(=O)NO)cn3)CC1)cn2C [Compound 36]
Enzymatic activity pIC50 C.1.b [1]: 8.7
IC50 [2]: 2.51 nM
solubility [4]: 2500 µg/mL (≈ 6.12 mM)

Cn1cc(CNCC2CCN(c3ncc(C(=O)NO)cn3)CC2)c2c(F)cccc21 [Compound 39]
Enzymatic activity pIC50 C.1.b [1]: 9.0
IC50 [2]: 31.6 nM
solubility [4]: 2000 µg/mL (≈ 4.85 mM)

CCCCn1cc(CNCC2CCN(c3ncc(C(=O)NO)cn3)CC2)c2ccccc21 [Compound 43]
Enzymatic activity pIC50 C.1.b [1]: 8.5
IC50 [2]: 15.8 nM
solubility [4]: 2100 µg/mL (≈ 4.81 mM)

Cn1ccc2cc(CNCC3CCN(c4ncc(C(=O)NO)cn4)CC3)ccc21 [Compound 44]
Enzymatic activity pIC50 C.1.b [1]: 8.2
IC50 [2]: 39.8 nM
solubility [4]: 1800 µg/mL (≈ 4.56 mM)

CCCn1cc(CNCC2CCN(c3ncc(C(=O)NO)cn3)CC2)c2cc3c(cc21)OCO3 [Compound 45]
Enzymatic activity pIC50 C.1.b [1]: 9.0
IC50 [2]: 200 nM
solubility [4]: 1700 µg/mL (≈ 3.64 mM)

COCCn1cc(CNCC2CCN(c3ncc(C(=O)NO)cn3)CC2)c2ccccc21 [Compound 47]
Enzymatic activity pIC50 C.1.b [1]: 8.8
IC50 [2]: 10 nM
solubility [4]: 4000 µg/mL (≈ 9.12 mM)

Cn1ccc2c(CNCC3CCN(c4ncc(C(=O)NO)cn4)CC3)cccc21 [Compound 49]
Enzymatic activity pIC50 C.1.b [1]: 8.7
IC50 [2]: 31.6 nM
solubility [4]: 3300 µg/mL (≈ 8.37 mM)

Cn1ccc2ccc(CNCC3CCN(c4ncc(C(=O)NO)cn4)CC3)cc21 [Compound 50]
Enzymatic activity pIC50 C.1.b [1]: 8.6
IC50 [2]: 25.1 nM
solubility [4]: 2400 µg/mL (≈ 6.08 mM)

Cn1cc(CNCC2CCN(c3ncc(C(=O)NO)cn3)CC2)c2cc(C#N)ccc21 [Compound 55]
Enzymatic activity pIC50 C.1.b [1]: 10.1
IC50 [2]: 15.8 nM
solubility [4]: 2000 µg/mL (≈ 4.77 mM)

Cn1ccc2cccc(CNCC3CCN(c4ncc(C(=O)NO)cn4)CC3)c21 [Compound 57]
Enzymatic activity pIC50 C.1.b [1]: 10.2
IC50 [2]: 25.1 nM
solubility [4]: 2800 µg/mL (≈ 7.1 mM)

COc1cc2c(CNCC3CCN(c4ncc(C(=O)NO)cn4)CC3)cn(C)c2cc1OC [Compound 60]
Enzymatic activity pIC50 C.1.b [1]: 8.7
IC50 [2]: 126 nM
solubility [4]: 3100 µg/mL (≈ 6.82 mM)

CCN(CCc1cn(C)c2ccc(Cl)cc12)CC1CCN(c2ncc(C(=O)NO)cn2)CC1 [Compound 65]
Enzymatic activity pIC50 C.1.b [1]: >9.0
IC50 [2]: 31.6 nM
solubility [4]: 1600 µg/mL (≈ 3.4 mM)

CCN(CCc1cn(C)c2ccccc12)CC1CCN(c2ncc(C(=O)NO)cn2)CC1 [Compound 66]
Enzymatic activity pIC50 C.1.b [1]: >9.0
IC50 [2]: 39.8 nM
solubility [4]: 1700 µg/mL (≈ 3.89 mM)

CN(Cc1cn(C)c2ccccc12)CC1CCN(c2ncc(C(=O)NO)cn2)CC1 [Compound 67]
Enzymatic activity pIC50 C.1.b [1]: 8.3
IC50 [2]: 31.6 nM
solubility [4]: 1900 µg/mL (≈ 4.65 mM)

CCN(Cc1cn(C)c2ccccc12)CC1CCN(c2ncc(C(=O)NO)cn2)CC1 [Compound 68]
Enzymatic activity pIC50 C.1.b [1]: >9.0
IC50 [2]: 63.1 nM
solubility [4]: 2500 µg/mL (≈ 5.92 mM)

Cc1ccc2c(CNCC3CCN(c4ncc(C(=O)NO)cn4)CC3)cn(C)c2c1 [Compound 79]
Enzymatic activity pIC50 C.1.b [1]: 8.4
IC50 [2]: 7.94 nM
solubility [4]: 2700 µg/mL (≈ 6.61 mM)
